Values quoted from earlier work in PMC4460250, “Systems Pharmacology Dissecting Holistic Medicine for Treatment of Complex Diseases: An Example Using Cardiocerebrovascular Diseases Treated by TCM” (Evidence-based Complementary and Alternative Medicine : eCAM, 2015).

Conditions: human; PreHIA data set, value given as fraction; cited from earlier work

Row | Structure (SMILES) | HIA(Human Intestinal Absorption)
1 | CC#C[C@]1(O)CC[C@H]2[C@@H]3CCC4=CC(=O)CCC4=C3[C@@H](c3ccc(N(C)C)cc3)C[C@@]21C [Mifepristone] | 0.9
2 | Nc1ccc(S(=O)(=O)c2ccc(N)cc2)cc1 [Dapsone] | 0.9
3 | N[C@@H](Cc1ccc(O)c(O)c1)C(=O)O [Levodopa] | 0.86

Same assay, conditions: in vivo; cited from earlier work

Row | Structure (SMILES) | HIA(Human Intestinal Absorption)
4 | CC(=O)Nc1ccc(O)cc1 [Acetaminophen] | 0.85
5 | CC1=C(C(=O)O)N2C(=O)[C@@H](NC(=O)[C@H](N)c3ccc(O)cc3)[C@H]2SC1 [Cefadroxil] | 1
6 | CCC[C@H](N[C@@H](C)C(=O)N1[C@H](C(=O)O)C[C@@H]2CCCC[C@@H]21)C(=O)OCC [Perindopril] | 0.95
7 | O=C(O)c1cc(/N=N/c2ccc(S(=O)(=O)Nc3ccccn3)cc2)ccc1O [Sulphasalazine] | 0.59
8 | O=C(O)Cc1ccccc1Oc1ccc(Cl)cc1Cl [Fenclofenac] | 1
9 | NC(=O)c1ncn([C@@H]2O[C@H](CO)[C@@H](O)[C@H]2O)n1 [Ribavirin] | 0.33
10 | OC[C@H]1O[C@@H](O[C@@H]2[C@@H](CO)OC(O)(CO)[C@H]2O)[C@H](O)[C@@H](O)[C@H]1O (mixture of isomers) [Lactulose] | 0.01
11 | CCC1=C(C)CN(C(=O)NCCc2ccc(S(=O)(=O)NC(=O)N[C@H]3CC[C@H](C)CC3)cc2)C1=O [Glimepiride] | 1
12 | COc1cc(Cc2cnc(N)nc2N)cc(OC)c1OC [Trimethoprim] | 0.97
13 | Cc1ccc(S(=O)(=O)NC(=O)N[C@H]2[C@H]3CC[C@@](C)([C@H]2O)C3(C)C)cc1 [Glibornuride] | 0.98
14 | CC(C)(C(=O)c1cccnc1)c1cccnc1 [Metyrapone] | 0.8
15 | O=C(C1CCCCC1)N1CC(=O)N2CCc3ccccc3C2C1 (stereo not shown) [Praziquantel] | 1
16 | O=C(O)c1cccnc1 [Nicotinic_acid] | 0.88
17 | COc1ccc([C@]2(C#N)CC[C@@H](C(=O)O)CC2)cc1OC1CCCC1 [Cilomilast] | 1
18 | O=C(NCCO[N+](=O)[O-])c1cccnc1 [Nicorandil] | 1
19 | CC1=NS(=O)(=O)c2cc(Cl)ccc2N1 [Diazoxide] | 0.9
20 | CCC#CC[C@H](C)[C@H](O)C#C[C@@H]1[C@H]2C/C(=C/COCC(=O)O)C[C@H]2C[C@H]1O [Cicaprost] | 1
21 | CC(CCc1ccccc1)NCC(O)c1ccc(O)c(C(N)=O)c1 (stereo not shown) [Labetalol] | 0.95
22 | Cc1[nH]c(=O)c(C#N)cc1-c1ccncc1 [Milrinone] | 0.83
23 | COCC(=O)O[C@]1(CCN(C)CCCc2nc3ccccc3[nH]2)CCc2cc(F)ccc2[C@@H]1C(C)C [Mibefradil] | 0.69
24 | Nc1ccn([C@H]2CC[C@@H](CO)O2)c(=O)n1 [Zalcitabine] | 0.85
25 | COCCCOc1ccnc(C[S+]([O-])c2nc3ccccc3[nH]2)c1C (stereo not shown) [Rabeprazole] | 0.9
26 | O=C(O)c1cc(/N=N/c2ccc(S(=O)(=O)Nc3ccccn3)cc2)ccc1O [Sulfasalazine] | 0.62
27 | CC(=O)Nc1ccccc1 [Acetanilide] | 1
28 | CCCCc1nc(Cl)c(CO)n1Cc1ccc(-c2ccccc2-c2nn[nH]n2)cc1 [Losartan] | 0.8
29 | Clc1ccccc1CN1CCc2sccc2C1 [Ticlopidine] | 0.8

Row | Structure (SMILES) | HIA(Human Intestinal Absorption)
30 | CCCN1CC(NS(=O)(=O)N(CC)CC)CC2Cc3c(O)cccc3CC21 (stereo not shown) [Quinagolide] | 1
31 | CCOC(=O)Nc1ccc2c(c1)N(C(=O)CCN1CCOCC1)c1ccccc1S2 [Moricizine] | 0.88
32 | Nc1nc(O)c2ncn(COC(CO)CO)c2n1 [Ganciclovir] | 0.038
33 | C[C@](N)(Cc1ccc(O)c(O)c1)C(=O)O [Methyldopa] | 0.41
34 | OC[C@@H](O)[C@@H](O)[C@H](O)[C@H](O)CO [Mannitol] | 0.16
35 | [H]/N=C(/N)N[C@H]1[C@H](O)[C@@H](O)[C@H](O[C@@H]2O[C@@H](C)[C@](O)(C=O)[C@H]2O[C@@H]2O[C@@H](CO)[C@H](O)[C@@H](O)[C@@H]2NC)[C@@H](N/C(N)=N\[H])[C@@H]1O [Streptomycin] | 0.01
36 | Cc1ccc(-c2ncc(Cl)cc2-c2ccc(S(C)(=O)=O)cc2)cn1 [Etoricoxib] | 1
37 | NC(N)=Nc1nc(CSCCC(N)=NS(N)(=O)=O)cs1 [Famotidine] | 0.28
38 | Cc1nnc(NS(=O)(=O)c2ccc(N)cc2)s1 [Sulfamethizole] | 0.85
39 | COc1cc(C)c(/C=C/C(C)=C/C=C/C(C)=C/C(=O)O)c(C)c1C [Acitretin] | 0.95
40 | CC(=O)OCC(=O)[C@@]1(O)CC[C@H]2[C@@H]3CCC4=CC(=O)CC[C@]4(C)[C@@]3(F)[C@@H](O)C[C@@]21C [Fludrocortisone_acetate] | 0.95
41 | Cc1cn([C@H]2C[C@H](N=[N+]=[N-])[C@@H](CO)O2)c(=O)[nH]c1=O [Zidovudine] | 1
42 | COC(=O)Nc1nc2ccc(C(=O)c3ccccc3)cc2[nH]1 [Mebendazole] | 1
43 | Cc1cccc(Nc2ccncc2S(=O)(=O)NC(=O)NC(C)C)c1 [Torasemide] | 0.96
44 | COc1cccc2c1C(=O)c1c(O)c3c(c(O)c1C2=O)C[C@@](O)(C(=O)CO)C[C@@H]3O[C@H]1C[C@H](N)[C@H](O)[C@H](C)O1 [Doxorubicin] | 0.12
45 | C#C[C@]1(OC(C)=O)CC[C@H]2[C@@H]3CCC4=CC(=NO)CC[C@@H]4[C@H]3CC[C@@]21CC (mixture of isomers) [Norgestimate] | 1
46 | CN(C)CC/C=C1\c2ccccc2CSc2ccccc21 [Dothiepin] | 0.95
47 | O=C1CN(/N=C/c2ccc([N+](=O)[O-])o2)C(=O)N1 [Nitrofurantoin] | 0.95
48 | CN1CCN2c3ccccc3Cc3ccccc3C2C1 (stereo not shown) [Mianserin] | 0.7
49 | CN(C)CCc1c[nH]c2ccc(CS(=O)(=O)N3CCCC3)cc12 [Almotriptan] | 0.75
50 | NCCC(O)(P(=O)(O)O)P(=O)(O)O [Pamidronic_acid] | 0.05
51 | Cc1onc(-c2c(F)cccc2Cl)c1C(=O)N[C@@H]1C(=O)N2[C@@H]1SC(C)(C)[C@@H]2C(=O)O [Floxacillin] | 0.8
52 | CN(C)CCCN1c2ccccc2Sc2ccc(Cl)cc21 [Chlorpromazine] | 0.98
53 | COc1ccc2c(c1)C(=O)N(CCc1ccc(S(=O)(=O)NC(=O)NC3CCCCC3)cc1)C(=O)C2(C)C [Gliquidone] | 0.95
54 | C[C@]12C=CC(=O)C=C1CC[C@H]1[C@@H]3C[C@@H](O)[C@](O)(C(=O)CO)[C@@]3(C)C[C@H](O)[C@@]12F [Triamcinolone] | 1
55 | OCCN(CCO)c1nc(N2CCCCC2)c2nc(N(CCO)CCO)nc(N3CCCCC3)c2n1 [Dipyridamole] | 0.58
